Measured values: PubChem BioAssay AID256 (DTP/NCI, 2004)
Several values for one entry are separate records, joined by “and”; a condition that tells them apart may be missing. Identical values can stand only once. Toxic doses and inconclusive results are not listed. Residues, ends and D or L forms follow the SMILES beside them. *: point of attachment. Trt = c1ccc(C(c2ccccc2)(c2ccccc2)*)cc1; Cbz = O=C(OCc1ccccc1)*

System: CD2F1 mice, L1210 leukemia ip, survival T/C
Test: NCI In Vivo Anticancer Drug Screen. Data for tumor model L1210 Leukemia (intraperitoneal) in CD2F1 (CDF1) mice
Conditions: higher = longer survival
Method in brief: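 Mice carrying a transplanted tumor received test compound or vehicle alone. The value is the measurement in the treated group divided by that in the vehicle-treated control group.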

[1] = endpoint: mean survival time, dose: 100.0 mg/kg/injection, schedule: Q01DX001 (ip), vehicle: saline with Tween-80
[2] = endpoint: mean survival time, dose: 200.0 mg/kg/injection, schedule: Q01DX001 (ip), vehicle: saline with Tween-80
[3] = endpoint: mean survival time, dose: 400.0 mg/kg/injection, schedule: Q01DX001 (ip), vehicle: saline with Tween-80
[4] = endpoint: mean survival time, dose: 100.0 mg/kg/injection, schedule: Q01DX009 (ip), vehicle: saline with Tween-80
[5] = endpoint: mean survival time, dose: 200.0 mg/kg/injection, schedule: Q01DX009 (ip), vehicle: saline with Tween-80
[6] = endpoint: mean survival time, dose: 400.0 mg/kg/injection, schedule: Q01DX009 (ip), vehicle: saline with Tween-80
[7] = endpoint: mean survival time, dose: 100.0 mg/kg/injection, schedule: Q04DX003 (ip), vehicle: saline with Tween-80
[8] = endpoint: mean survival time, dose: 200.0 mg/kg/injection, schedule: Q04DX003 (ip), vehicle: saline with Tween-80
[9] = endpoint: mean survival time, dose: 400.0 mg/kg/injection, schedule: Q04DX003 (ip), vehicle: saline with Tween-80
[10] = endpoint: mean survival time, dose: 75.0 mg/kg/injection, schedule: Q01DX001 (ip), vehicle: saline

## CC12CCC3C(CCC(CC(=O)O)C3(C)CC(=O)O)C1CCC2=O (stereo not drawn)
[1]
  T/C: 98 % of control
[2]
  T/C: 97 % of control
[3]
  T/C: 97 % of control

## O=Cc1ccc(C=O)cc1
[4]
  T/C: 104 % of control
[5]
  T/C: 98 % of control
[6]
  T/C: 96 % of control

## CCNC(=O)Nc1nc2ccccc2[nH]1
endpoint: mean survival time, dose: 50.0 mg/kg/injection, schedule: Q01DX009 (ip), vehicle: saline with Tween-80
  T/C: 101 % of control

## O=C(O)C(O)C(O)C(=O)O (stereo not drawn)
endpoint: mean survival time, dose: 100.0 mg/kg/injection, schedule: Q01DX001 (ip), vehicle: saline
  T/C: 103 % of control
[4]
  T/C: 102 % of control
[7]
  T/C: 97 % of control
endpoint: mean survival time, dose: 100.0 mg/kg/injection, schedule: Q04DX003 (ip), vehicle: saline
  T/C: 110 % of control
endpoint: mean survival time, dose: 200.0 mg/kg/injection, schedule: Q01DX001 (ip), vehicle: saline
  T/C: 106 % of control
[5]
  T/C: 102 % of control
[8]
  T/C: 92 % of control
endpoint: mean survival time, dose: 200.0 mg/kg/injection, schedule: Q04DX003 (ip), vehicle: saline
  T/C: 98 % of control
endpoint: mean survival time, dose: 400.0 mg/kg/injection, schedule: Q01DX001 (ip), vehicle: saline
  T/C: 110 % of control
[9]
  T/C: 97 % of control
endpoint: mean survival time, dose: 400.0 mg/kg/injection, schedule: Q04DX003 (ip), vehicle: saline
  T/C: 101 % of control

## NNC(=O)c1nc(N)n[nH]1
[7]
  T/C: 101 % of control
[8]
  T/C: 103 % of control
[9]
  T/C: 104 % of control

## CC(C)(C)/[N+]([O-])=N/O
[10]
  T/C: 101 % of control

## C/C=C/CC(C/C=C/C)C1CC[N-]CC1.C/C=C/CC(C/C=C/C)C1CC[N-]CC1.[Cl][Pt+2]([Cl])([Cl])[Cl]
endpoint: mean survival time, dose: 12.5 mg/kg/injection, schedule: Q01DX009 (ip), vehicle: other
  T/C: 93 % of control
endpoint: mean survival time, dose: 100.0 mg/kg/injection, schedule: Q01DX009 (ip), vehicle: other
  T/C: 88 % of control

## O=P(c1ccccc1)(c1ccccc1)P(=O)(c1ccccc1)c1ccccc1
[1]
  T/C: 90 % of control
[2]
  T/C: 90 % of control
[3]
  T/C: 96 % of control

## O=C(c1ccc(F)cc1)c1ccccc1Cl
[4]
  T/C: 102 % of control
[7]
  T/C: 105 % of control
[5]
  T/C: 97 % of control
[8]
  T/C: 98 % of control
[6]
  T/C: 97 % of control
[9]
  T/C: 98 % of control

## C[Si](OP(=O)(O[Si](C)(c1ccccc1)c1ccccc1)N(CCCl)CCCl)(c1ccccc1)c1ccccc1
endpoint: mean survival time, dose: 15.63 mg/kg/injection, schedule: Q01DX001 (ip), vehicle: distilled water + Tween-80
  T/C: 104 % of control
endpoint: mean survival time, dose: 31.25 mg/kg/injection, schedule: Q01DX001 (ip), vehicle: distilled water + Tween-80
  T/C: 97 % of control
endpoint: mean survival time, dose: 62.5 mg/kg/injection, schedule: Q01DX001 (ip), vehicle: distilled water + Tween-80
  T/C: 101 % of control
endpoint: mean survival time, dose: 125.0 mg/kg/injection, schedule: Q01DX001 (ip), vehicle: distilled water + Tween-80
  T/C: 95 % of control
endpoint: mean survival time, dose: 250.0 mg/kg/injection, schedule: Q01DX001 (ip), vehicle: distilled water + Tween-80
  T/C: 97 % of control
endpoint: mean survival time, dose: 500.0 mg/kg/injection, schedule: Q01DX001 (ip), vehicle: distilled water + Tween-80
  T/C: 115 % of control

## C=C[C](=C)[Pb]([CH2]C)([CH2]C)[CH2]C
[10]
  T/C: 100 % of control
endpoint: mean survival time, dose: 150.0 mg/kg/injection, schedule: Q01DX001 (ip), vehicle: saline
  T/C: 97 % of control
endpoint: mean survival time, dose: 300.0 mg/kg/injection, schedule: Q01DX001 (ip), vehicle: saline
  T/C: 107 % of control

## O=C1NCC(C2CC2)(C2CC2)O1
endpoint: mean survival time, dose: 100.0 mg/kg/injection, schedule: Q04DX002 (ip), vehicle: saline with Tween-80
  T/C: 108 % of control
endpoint: mean survival time, dose: 200.0 mg/kg/injection, schedule: Q04DX002 (ip), vehicle: saline with Tween-80
  T/C: 100 % of control
endpoint: mean survival time, dose: 400.0 mg/kg/injection, schedule: Q04DX002 (ip), vehicle: saline with Tween-80
  T/C: 100 % of control

## COC(=O)C(CSC(c1ccccc1)(c1ccccc1)c1ccccc1)NC(=O)C(CC(N)=O)NC(=O)OCc1ccccc1 (stereo not drawn) (Cbz-Asn-Cys(Trt)-OMe; configuration not given here)
endpoint: median survival time, dose: 12.5 mg/kg/injection, schedule: Q01DX009 (ip), vehicle: distilled water + Tween-80
  T/C: 101 % of control
endpoint: median survival time, dose: 25.0 mg/kg/injection, schedule: Q01DX009 (ip), vehicle: distilled water + Tween-80
  T/C: 108 % of control
endpoint: median survival time, dose: 50.0 mg/kg/injection, schedule: Q01DX009 (ip), vehicle: distilled water + Tween-80
  T/C: 113 % of control and 107 % of control
endpoint: median survival time, dose: 100.0 mg/kg/injection, schedule: Q01DX009 (ip), vehicle: distilled water + Tween-80
  T/C: 114 % of control
endpoint: median survival time, dose: 200.0 mg/kg/injection, schedule: Q01DX009 (ip), vehicle: distilled water + Tween-80
  T/C: 162 % of control

## O=C(O)CNS(=O)(=O)c1ccccc1
[7]
  T/C: 98 % of control
[8]
  T/C: 101 % of control
[9]
  T/C: 93 % of control
